Assays:
Assay in all cases: relative viability (nuclei count vs DMSO), 5 days (fraction); higher = more cells survive
[1] = compound: Cc1cnc(Nc2ccc(OCCN3CCCC3)cc2)nc1Nc1cccc(S(=O)(=O)NC(C)(C)C)c1 [Fedratinib] + C[C@]1(O)C[C@@H](c2nc(-c3ccc4ccc(-c5ccccc5)nc4c3)c3c(N)nccn32)C1 [Linsitinib] (partner 1 µM)
Method in brief: (§1)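 One day after seeding in 1536-well plates, lung cancer cell lines were dosed by pin tool. Dosing was either single-drug or a fixed anchor-drug dose plus five library-drug doses (not always all listed) in √10 steps. After 5 days, nuclei were stained in one fix-and-stain step and counted on 4× images, and relative viability is the nuclei count of treated wells over that of vehicle wells, given as the median of duplicate plates.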

[2] = compound: COC1=CC=C(C=C1)COC2=C(C=C(C=C2)CC3=CN=C(N=C3N)N)OC [GW-2580] + C[C@@H](Oc1cc(-c2cnn(C3CCNCC3)c2)cnc1N)c1c(Cl)ccc(F)c1Cl [Crizotinib] (partner 1 µM)
Method in brief: as §1

[3] = compound: Cc1cnc(Nc2ccc(OCCN3CCCC3)cc2)nc1Nc1cccc(S(=O)(=O)NC(C)(C)C)c1 [Fedratinib] + CC(=O)Nc1cccc(-n2c(=O)n(C3CC3)c(=O)c3c(Nc4ccc(I)cc4F)n(C)c(=O)c(C)c32)c1 [Trametinib] (partner 0.02 µM)
Method in brief: as §1

[4] = compound: COC1=CC=C(C=C1)COC2=C(C=C(C=C2)CC3=CN=C(N=C3N)N)OC [GW-2580] + Cc1cc(Nc2cc(N3CCN(C)CC3)nc(Sc3ccc(NC(=O)C4CC4)cc3)n2)n[nH]1 [Tozasertib] (partner 0.1 µM)
Method in brief: as §1

[5] = compound: Cc1cnc(Nc2ccc(OCCN3CCCC3)cc2)nc1Nc1cccc(S(=O)(=O)NC(C)(C)C)c1 [Fedratinib] + COc1cc2c(Oc3ccc(NC(=O)C4(C(=O)Nc5ccc(F)cc5)CC4)cc3F)ccnc2cc1OCCCN1CCOCC1 [Foretinib] (partner 0.25 µM)
Method in brief: as §1

[6] = compound: Cc1cnc(Nc2ccc(OCCN3CCCC3)cc2)nc1Nc1cccc(S(=O)(=O)NC(C)(C)C)c1 [Fedratinib] + CC(C)C[C@H](NC(=O)[C@H](Cc1ccccc1)NC(=O)c1cnccn1)B(O)O [Bortezomib] (partner 0.002 µM)
Method in brief: as §1

Cell Line	relative viability ([1]; first compound 0.3162 µM)	relative viability ([1]; first compound 1 µM)	relative viability ([2]; first compound 0.08 µM)	relative viability ([2]; first compound 0.8 µM)	relative viability ([2]; first compound 2.53 µM)	relative viability ([2]; first compound 8 µM)	relative viability ([3]; first compound 0.1 µM)	relative viability ([3]; first compound 0.3162 µM)	relative viability ([3]; first compound 1 µM)	relative viability ([4]; first compound 0.08 µM)	relative viability ([4]; first compound 0.8 µM)	relative viability ([4]; first compound 2.53 µM)	relative viability ([4]; first compound 8 µM)	relative viability ([5]; first compound 0.1 µM)	relative viability ([5]; first compound 0.3162 µM)	relative viability ([5]; first compound 1 µM)	relative viability ([6]; first compound 0.3162 µM)	relative viability ([6]; first compound 1 µM)	relative viability ([1]; first compound 0.1 µM)	relative viability ([6]; first compound 0.1 µM)
NCI-H650	0.994	0.596	0.834	0.663	0.668	0.594	1.04	1.04	0.869	0.721	0.743	0.669	0.589	0.943	1.01	1.01	0.84	0.77	–	–
NCI-H661	0.533	0.622	0.983	1.22	0.917	0.843	0.511	0.622	0.409	0.34	0.344	0.367	0.336	0.959	1.1	1	0.894	0.9	0.512	0.81
NCI-H727	0.213	0.335	0.85	0.819	0.79	0.5	0.38	0.426	0.392	0.67	0.621	0.515	0.551	0.835	0.808	0.779	0.733	0.178	0.2	0.655
NCI-H838	1.05	0.984	0.946	0.904	0.779	0.8	0.475	0.525	0.542	0.291	0.341	0.295	0.248	1.05	1.06	0.989	0.808	0.208	1.01	0.588
NCI-H1355	0.822	0.796	1.24	1.12	0.946	1.01	0.442	0.387	0.412	0.532	0.494	0.396	0.477	1.06	0.973	0.913	1.24	1.09	0.684	1.21
NCI-H1437	0.978	0.884	1.01	1.01	0.828	0.77	0.492	0.561	0.564	0.412	0.433	0.405	0.291	1.25	1.25	1.33	0.473	0.191	1.03	0.432
NCI-H1651	0.954	1.01	0.917	0.952	0.813	0.874	0.778	0.826	0.859	0.763	0.745	0.702	0.569	0.813	0.73	0.761	0.951	0.871	0.976	0.965
NCI-H1666	0.875	0.869	1.01	0.984	1.17	0.926	1	0.824	0.861	0.675	0.661	0.581	0.592	0.927	0.991	0.962	0.944	0.276	0.726	0.649
NCI-H1734	0.865	0.776	0.66	0.74	0.656	0.509	0.605	0.583	0.636	0.25	0.267	0.277	0.252	0.665	0.921	0.786	0.856	0.231	0.898	1.06
NCI-H1755	1	0.885	0.852	1.03	0.818	0.71	0.822	0.696	0.73	0.545	0.576	0.523	0.538	0.937	0.977	0.874	0.92	0.903	0.995	0.938
NCI-H1915	1.08	1.03	0.896	1.14	1.03	0.905	0.307	0.28	0.275	0.469	0.44	0.489	0.387	1.09	1.08	1.05	0.872	0.662	1.04	0.986
NCI-H1975	0.929	0.872	1	1.12	0.926	0.796	0.344	0.234	0.304	0.854	1.06	0.614	0.654	1.09	0.947	0.746	0.405	0.163	0.897	0.388
NCI-H1993	0.718	0.682	0.971	0.828	–	0.936	0.547	0.419	0.421	0.618	0.526	0.574	0.549	0.763	0.818	0.808	0.979	0.48	0.706	0.993
NCI-H2009	1.18	1.17	1.05	1.05	1.07	1.01	0.204	0.286	0.216	0.744	0.828	0.715	0.707	1.12	1.23	1.1	1.11	0.131	1.18	0.99
NCI-H2023	0.673	0.601	0.61	0.829	0.59	0.623	0.588	0.626	0.488	0.475	0.431	0.522	0.342	0.8	0.873	0.643	0.95	0.0957	0.603	1.08

— the supplement of paper PMC10307832
